Experiment [1] deals with T1, gerbil NK1r (Meriones unguiculatus, UniProt Q5DUB1).
Description: Cells were detached with Accutase® solution, harvested in PBS containing 5% FBS by centrifugation, washed twice in PBS and resuspended to a concentration of 1×10^8 cells/ml in Tris-HCl 50 mM, KCl 300 mM, EDTA-N2 10 mM pH 7.4 (4° C.). Cell suspensions were homogenized with a UltraTurrax 30 s 12.000 rpm. The homogenates were centrifuged at 38,000×g (4° C.) and the pellet resuspended in Tris-HCl 50 mM pH 7.4. The homogenization was repeated once and the homogenates were incubated on ice for 45 min. The homogenates were again centrifuged as described above and resuspended in Tris-HCl 50 mM pH 7.4. This centrifugation step was repeated 3 times in total. After the last centrifugation step the pellet was resuspended in Tris-HCl 50 mM and homogenized with Dual Potter, 10 strokes to a homogenous solution, and aliquots were removed for protein determination. Membranes were aliquoted and frozen at −80° C. until use.
The radioligand binding assay was performed at room temperature in 96-well microtiter plates (No-binding Surface Plates, Corning 3600) with a final assay volume of 200 μl/well in incubation buffer (50 mM Tris buffer (pH 7.4 RT) containing 0.1% BSA, 40 mg/L Bacitracin, complete EDTA-free protease inhibitor cocktail tablets 20 pills/L (Roche) and 3 mM MnCl2).
Competition binding curves were done by adding increasing amounts of the test compound. […]
(§3) The membranes were then collected by rapid filtration on Filtermat B(Wallac), presoaked in 0.1% BSA and 0.3% Polyethyleneimine (Sigma P-3143), using a Micro 96 Harvester (Skatron Instruments, Norway). […] Meltilex scintillator sheets were melted on to filters using a Microsealer (Wallac, Finland) and the filters were counted in a β-Liquid Scintillation Counter (1450 Microbeta, Wallac, Finland).
(§4) The Ki value for the unlabeled ligand was calculated using the Cheng-Prusoff equation (Biochem. Pharmacol. 22:3099-3108, 1973), where L is the concentration of the radioactive ligand used and Kd is the affinity of the radioactive ligand for the receptor, determined by saturation binding. […]
Experiment [2] concerns the target T1, gerbil NK1r. Description: Inhibition of NK1 receptor activation, intracellular Ca2+ mobilization (FLIPR) in CHO cells. The format is cell-based. Set-up: Full-length PCR was performed using primers #NK1-16 and #NK1-17; expressed in transfected cells. Conditions: pKB ± SD, submaximal (60%) concentration of Substance P. As for the experimental part: (§1) The activity of a compound to inhibit NK1r activation measured as NK1r-mediated increase in intracellular Ca^2+ was assessed by the following procedure:
(§2) Before the FLIPR assay the cells of each 96-well plate were loaded with the Ca^2+-sensitive dye Fluo-3 (TEFLABS 0116) at 4 μM in a loading media consisting of Nut Mix F12 (HAM) with Glutamax I, 22 mM HEPES, 2.5 mM Probenicid (Sigma P-8761) and 0.04% Pluronic F-127 (Sigma P-2443) and kept in the dark for 1 hour in a 37° C. CO2-incubator. The cells were then washed three times in assay buffer (Hanks balanced salt solution (HBSS) containing 20 mM HEPES, 2.5 mM Probenicid and 0.1% BSA) using a multi-channel pipette leaving them in 150 μl at the end of the last wash. Serial dilutions of a test compound in assay buffer (final DMSO concentration kept below 1%) were automatically pipetted by FLIPR (Fluorometric Imaging Plate Reader) into each test well and the fluorescence intensity was recorded (excitation 488 nm and emission 530 nm) by the FLIPR CCD camera for a 2-min pre-incubation period. 50 μl of the Substance P (NK1 specific), NKA (NK2 specific), or Pro-7-NKB (NK3 specific) agonist solution (final concentration equivalent to an approximate EC60 concentration) was then added by FLIPR into each well already containing 200 μl assay buffer (containing the test compound or vehicle) and the fluorescence was continuously monitored for another 2 min. The response was measured as the peak relative fluorescence after agonist addition and IC50s were calculated from ten-point concentration-response curves for each compound. The IC50s were then converted to pKB values with the following formula: KB=IC50/1+(EC60 conc. of agonist used in assay/EC50 agonist) pKB=−log KB Binding Assay for NK1 Receptors
In general terms: A change in cytosolic calcium serves as a functional read-out for many receptors and channels.

Experiment [3] concerns the target T1, gerbil NK1r. Description: Gerbil foot tap (GFT, NK1r-specific test model). The format is in vivo, Mongolian gerbil. Set-up: tissue Charles River, Germany (animals); host or cells: living Mongolian gerbil, central nervous system (in vivo). The settings on record: from brain homogenate concentration of antagonist at 50% inhibition, used in the Cheng-Prusoff equation. The source says: Male Mongolian gerbils (60-80 g) were purchased from Charles River, Germany. On arrival, they were housed in groups of ten, with food and water ad libitum in temperature- and humidity-controlled holding rooms. The animals were allowed at least 7 days to acclimatize to the housing conditions before experiments. Each animal was used only once and killed immediately after the experiment by heart punctuation or a lethal overdose of pentobarbital sodium.
Gerbils were anaesthetized with isoflurane. Potential CNS-permeable NK1 receptor antagonists were administered intraperitoneally, intravenously or subcutaneously.
The gerbils were lightly anaesthetized using isoflurane and a small incision was made in the skin over bregma. 10 pmol of ASMSP, a selective NK1receptor agonist, was administered icv in a volume of 5 μl using a Hamilton syringe with a needle 4 mm long. The wound was clamped shut and the animal was placed in a small plastic cage and allowed to wake up. The cage was placed on a piece of plastic tubing filled with water and connected to a computer via a pressure transducer. The number of hind feet taps was recorded.

The next experiment deals with T2, rat NK1r (Rattus norvegicus, UniProt P14600).
T2 construct: expressed in transfected cells
T2 sequence (P14600 whole entry): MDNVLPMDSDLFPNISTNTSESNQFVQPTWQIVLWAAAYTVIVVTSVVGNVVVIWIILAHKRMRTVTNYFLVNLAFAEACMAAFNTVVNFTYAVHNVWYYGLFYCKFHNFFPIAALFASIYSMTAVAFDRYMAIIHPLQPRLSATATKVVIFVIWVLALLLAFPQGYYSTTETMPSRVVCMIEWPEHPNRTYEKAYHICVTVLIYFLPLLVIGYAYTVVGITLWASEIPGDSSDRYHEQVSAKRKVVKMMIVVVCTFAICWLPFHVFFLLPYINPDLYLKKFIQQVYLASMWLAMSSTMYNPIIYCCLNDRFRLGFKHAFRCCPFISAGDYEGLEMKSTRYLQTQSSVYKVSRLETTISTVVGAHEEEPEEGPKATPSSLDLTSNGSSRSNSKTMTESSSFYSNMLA
Description: Inhibition of NK1 receptor activation, intracellular Ca2+ mobilization (FLIPR) in CHO cells. Conditions: pKB ± SD, submaximal (60%) concentration of Substance P. The format is cell-based. As for the experimental part: as §1, §2

For experiment [4], the target named is T3, human NK1r (Homo sapiens, UniProt P25103).
T3 sequence (P25103 whole entry): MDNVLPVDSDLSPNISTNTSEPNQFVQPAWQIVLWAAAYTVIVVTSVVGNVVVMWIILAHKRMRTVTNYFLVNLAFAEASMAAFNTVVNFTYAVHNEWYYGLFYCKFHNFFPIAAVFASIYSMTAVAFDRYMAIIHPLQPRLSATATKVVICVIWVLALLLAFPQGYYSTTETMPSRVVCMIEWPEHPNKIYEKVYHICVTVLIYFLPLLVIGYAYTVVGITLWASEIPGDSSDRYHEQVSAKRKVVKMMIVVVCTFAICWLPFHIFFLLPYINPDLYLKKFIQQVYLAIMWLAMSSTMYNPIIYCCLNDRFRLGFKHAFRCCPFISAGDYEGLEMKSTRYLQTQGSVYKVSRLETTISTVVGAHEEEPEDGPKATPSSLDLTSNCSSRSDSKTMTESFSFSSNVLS
Description: Cells were detached with Accutase® solution, harvested in PBS containing 5% FBS by centrifugation, washed twice in PBS and resuspended to a concentration of 1×10^8 cells/ml in Tris-HCl 50 mM, KCl 300 mM, EDTA-N2 10 mM pH 7.4 (4° C.). Cell suspensions were homogenized with a UltraTurrax 30 s 12.000 rpm. The homogenates were centrifuged at 38,000×g (4° C.) and the pellet resuspended in Tris-HCl 50 mM pH 7.4. The homogenization was repeated once and the homogenates were incubated on ice for 45 min. The homogenates were again centrifuged as described above and resuspended in Tris-HCl 50 mM pH 7.4. This centrifugation step was repeated 3 times in total. […]
as §3, §4
The target of experiment [5] is T3, human NK1r. Description: Inhibition of NK1 receptor activation, intracellular Ca2+ mobilization (FLIPR) in CHO cells. Further details: expressed in transfected cells. The format is cell-based. Conditions: pKB ± SD, submaximal (60%) concentration of Substance P. Here is the method: as §1
CO2-incubator. The cells were then washed three times in assay buffer (Hanks balanced salt solution (HBSS) containing 20 mM HEPES, 2.5 mM Probenicid and 0.1% BSA) using a multi-channel pipette leaving them in 150 μl at the end of the last wash. […] 50 μl of the Substance P (NK1 specific), NKA (NK2 specific), or Pro-7-NKB (NK3 specific) agonist solution (final concentration equivalent to an approximate EC60 concentration) was then added by FLIPR into each well already containing 200 μl assay buffer (containing the test compound or vehicle) and the fluorescence was continuously monitored for another 2 min. The response was measured as the peak relative fluorescence after agonist addition and IC50s were calculated from ten-point concentration-response curves for each compound. The IC50s were then converted to pKB values with the following formula: KB=IC50/1+(EC60 conc. of agonist used in assay/EC50 agonist) pKB=−log KB Binding Assay for NK1 Receptors

The record followed here is patent US20070248995A1, “Molecules” (priority 2004, published 2007).

Like-named read-outs stand apart in the source and are kept apart here.

T1 sequence (Q5DUB1 whole entry): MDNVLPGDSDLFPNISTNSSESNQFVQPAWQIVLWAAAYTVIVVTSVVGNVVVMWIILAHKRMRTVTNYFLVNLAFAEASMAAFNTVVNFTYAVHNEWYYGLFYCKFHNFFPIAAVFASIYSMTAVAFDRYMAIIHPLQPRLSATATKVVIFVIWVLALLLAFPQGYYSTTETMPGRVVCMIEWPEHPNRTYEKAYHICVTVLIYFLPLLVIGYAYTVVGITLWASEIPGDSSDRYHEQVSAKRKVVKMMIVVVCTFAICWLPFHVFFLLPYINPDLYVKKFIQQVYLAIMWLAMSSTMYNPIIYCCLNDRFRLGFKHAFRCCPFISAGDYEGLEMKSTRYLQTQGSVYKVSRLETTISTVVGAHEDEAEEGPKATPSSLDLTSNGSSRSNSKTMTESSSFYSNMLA

Turning to `COc1ccccc1CN[C@H]1CCCN[C@H]1c1ccccc1` [CP 99994], at gerbil NK1r [1], the affinity corresponds to a Ki of 0.81 nM. Further, the Kb at gerbil NK1r [2] was 1.15 nM; on rat NK1r, 1230 nM. For the same molecule, on gerbil NK1r [3], the “gerbil NK1r pKBapp. (in vivo GFT apparent pKB)” value is 8.1.
On to `C[C@@H](O[C@H]1OCCN(Cc2n[nH]c(=O)[nH]2)[C@H]1c1ccc(F)cc1)c1cc(C(F)(F)F)cc(C(F)(F)F)c1` [MK 869, aprepitant], for which the inhibition constant (Ki) (as a rule, a measure of affinity in units of concentration, obtained from inhibition or displacement) on gerbil NK1r [1] worked out at 0.16 nM. The Kb was 1.55 nM on gerbil NK1r [2] and 55 nM on rat NK1r. At gerbil NK1r [3], the “gerbil NK1r pKBapp. (in vivo GFT apparent pKB)” value turned out to be 8.9.
With `CN(C[C@@H](CCN1CCC(c2ccccc2[S@+](C)[O-])CC1)c1ccc(Cl)c(Cl)c1)C(=O)c1cc(C#N)cc2ccccc12` [ZD 6021], the Ki was 0.31 nM at human NK1r [4] and 0.38 nM on gerbil NK1r [1] (read-out: Gerbil NK1 Ki, competition binding, CHO cell membranes). Besides, the “gerbil NK1r pKB” value at gerbil NK1r [2] worked out at 9.00 ± 0.25. Besides, the “gerbil NK1r pKBapp. (in vivo GFT apparent pKB)” value at gerbil NK1r [3] was 8.5. For the same molecule, the “human NK1r pKB” value on human NK1r [5] is listed as 8.53 ± 0.41. Also, the “rat NK1r pKB” value on rat NK1r is less than 6.
